Laboratory results taken from patent US4001228A, “2-Thiol-4,5-diphenyloxazole S-derivatives” (Serono Laboratories, Inc., priority 1974, dated 1977).
Counter-ions that a name gives are not always drawn. Like-named read-outs stand apart in the source and are kept apart here.

Assays:
[1] = test system: ADP induced platelet aggregation (platelet-rich rabbit plasma); assay: ADP (5 μg/ml) induced platelet aggregation in vitro on platelet-rich plasma; format: cell-based; conditions: Oryctolagus cuniculus, 10 min
Protocol: (§1) The inhibitory activity on platelet aggregation was determined for the same compounds in vitro on platelet-rich rabbit plasma prepared by collecting the blood in a plastic centrifuge tube containing enough 3.8% sodium citrate to give a concentration of 0.38 g/100 ml when mixed with the blood, and then centrifuging at 100 × g for 20 minutes.
(§2) 1 ml aliquots of the thus prepared plasma were placed in a Platelet Aggregation Meter connected to a potentiometric recorder and tested according to Born, Nature (London), 194, 927 (1962).
(§3) The plasma-test compound mixtures were incubated for 10 min. at 37° C before addition of the aggregating agents, that is, Adenosine Diphosphate (ADP) or collagen.
(§4) The curves were read following the method described by O'Brien et al., Thromb. Diath. Haemorrhag. 16, 751 (1966). Slope and maximum transmission were recorded and expressed as % change with respect to controls. In the case of collagen induced platelet aggregation, the delay time ("reaction time") in seconds from the addition of the aggregating agent to the inflection of the curve was also measured and expressed as % change as above. For comparison purposes, acetylsalicylic acid (ASA) was also tested in the same conditions as the test compounds.
(§5) Negative figures in slope and maximum transmission % changes indicate antiaggregating activity. Positive figures in delay time % changes indicate that the compound is effective in prolonging the reaction time in the collagen induced platelet aggregation test.

[2] = test system: collagen induced platelet aggregation (platelet-rich rabbit plasma); assay: Collagen (40 μg/ml) induced platelet aggregation in vitro on platelet-rich plasma; format: cell-based; conditions: Oryctolagus cuniculus, 10 min
Protocol: as §1, §2, §3, §4, §5

"Swiss" mice = assay: Acute toxicity determined as approximate LD50; format: in vivo; conditions: i.p.; three groups of three "Swiss" mice
Protocol: (§6) The acute toxicity of some of the compounds of formula (I) was determined as approximate LD50, according to the method described in Acta Pharmacol, et toxicol, 25, 345 (1967), on three groups of three "Swiss" mice.

[3] = Acute toxicity determined as approximate LD50; format: in vivo; conditions: mouse, in vivo, ip; three groups of three "Swiss" mice
Protocol: as §6

[4] = read-out: Maximum transmission, % change

Structure (SMILES)	inhibition at 100 µg/mL [1, 4] [%]	inhibition at 100 µg/mL ([1]; read-out: Slope, % change) [%]	inhibition at 1.25 µg/mL [2, 4] [%]	inhibition at 1.25 µg/mL ([2]; read-out: Slope, % change) [%]	Approximate LD50 ("Swiss" mice) [mg/kg]	water solubility (Solubility (qualitative))	LD50 [3] [mg/kg]	also measured
CC(=O)Oc1ccccc1C(=O)O [ASA, acetylsalicylic acid, reference compound]	13.2	17.4	15.2	22.1				
O=C(O)CSc1nc(-c2ccccc2)c(-c2ccccc2)o1 [Example 3, 2-DIMETHYLAMINOETHANOL SALT OF S-(4,5-DIPHENYLOXAZOL-2-YL)-MERCAPTOACETIC ACID]					~220	water-soluble		
NC(=O)CSc1nc(-c2ccccc2)c(-c2ccccc2)o1 [Example 9, S-(4,5-DIPHENYLOXAZOL-2-YL)-MERCAPTOACETAMIDE]							~1200	inhibition at 100 µg/mL ([1]; ADP 5 μg/ml, compound 100 μg/ml, 10 min incubation at 37° C, change with respect to controls, negative = antiaggregating, read-out: Maximum transmission, % change): 6.6%; inhibition at 100 µg/mL ([1]; ADP 5 μg/ml, compound 100 μg/ml, 10 min incubation at 37° C, change with respect to controls, negative = antiaggregating, read-out: Slope, % change): 7.1%; inhibition at 1.25 µg/mL ([2]; collagen 40 μg/ml, compound 1.25 μg/ml, 10 min incubation at 37° C, change with respect to controls, negative = antiaggregating, read-out: Maximum transmission, % change): 12.3%; inhibition at 1.25 µg/mL ([2]; collagen 40 μg/ml, compound 1.25 μg/ml, 10 min incubation at 37° C, change with respect to controls, negative = antiaggregating, read-out: Slope, % change): 18.4%
O=C(O)CSc1nc(-c2ccccc2)c(-c2ccccc2)o1 [Example 4, METHYLAMINOETHANOL SALT OF S-(4,5-DIPHENYLOXAZOL-2-YL)-MERCAPTOACETIC ACID]					~220			
O=C(O)CSc1nc(-c2ccccc2)c(-c2ccccc2)o1 [Example 2, S-(4,5-DIPHENYLOXAZOL-2-yl)-MERCAPTOACETIC ACID]							~220	
CN(C)CCOC(=O)CSc1nc(-c2ccccc2)c(-c2ccccc2)o1 [Example 5, 2-DIMETHYL[…]-(4,5-DIPHENYLOXAZOL-2-YL)-MERCAPTOACETATE]	45.2	47.2	67.7	72.5		water soluble	~220	
